The results in this text go back to publication PMC11397358, “Cytotoxic Activity of Novel GnRH Analogs Conjugated with Mitoxantrone in Ovarian Cancer Cells” (Molecules, 2024).

The subject of assay [1] is SKOV-3 cells. Description: Cell proliferation (MTT) assay. The format is cell-based, human. The conditions noted are these: for IC50: Homo sapiens, 0.1 nM–10 µM, medium with 2% BCS, mean ± spread, Con-3 and mitoxantrone n = 3 experiments, Con-7 n = five. The protocol:
The antiproliferative effects of GnRH-mitoxantrone conjugates, Con-3, and Con-7, were evaluated using the SKOV-3 cells. The Con-3 and Con-7 conjugates decreased the proliferation rate of SKOV-3 cells in a dose-dependent manner on days 2, 3, and 4 (Figure 3A–C).
Figure 3 Antiproliferative activity of the GnRH analogs. Decrease in the proliferation rate of the SKOV3 cells after their treatment with increasing concentrations of Con-3, Con-7, Con-P1 or Con-P2 for 2 days (A), 3 days (B) and 4 days (C) at 37 °C. At the end of the incubation, the cells were further incubated with 0.5 mg/mL MTT for 4 h at room temperature and the formed purple formazan crystals were quantified by measuring absorbance at 594 nm. The means ± S.E (triplicate determination) are shown from a representative experiment performed 3 times with similar results. The proliferation rates of cells treated with 1 μΜ of GnRH analogs were used to plot the graph D which depicts the decrease in cell growth over the incubation time (D). Statistical analysis was performed using one-way ANOVA.
At the end of the incubation, the cells were further incubated with 0.5 mg/mL MTT for 4 h at room temperature and the formed purple formazan crystals were quantified by measuring absorbance at 594 nm. The means ± S.E (triplicate determination) are shown from a representative experiment performed 3 times with similar results. […] Statistical analysis was performed using one-way ANOVA.
SKOV-3 cells (kindly provided by Prof. Dimitrios Mavroudis, University of Crete) were seeded into 96-well plates at a density of 6000 cells/well, in triplicates, and incubated overnight in Dulbecco’s modified Eagle’s medium/F12 (DMEM/F12) (1:1), containing 3.15 g/L glucose and 10% bovine calf serum (BCS, HyClone), at 37 °C and 5% CO2. At the end of the incubation, the culture medium was replaced with a fresh one containing 3.15 g/L glucose and 2% BCS, with or without increasing concentrations of GnRH analogs or mitoxantrone (0.1 nM–10 µM), and the cells were further incubated at 37 °C and 5% CO2 for 2, 3 and 4 days. Subsequently, (3-(4,5-dimethylthiazol-2-yl)-2,5- diphenyl tetrazolium bromide) (MTT) was added at a final concentration of 0.5 mg/mL, and the mixtures were incubated for 4 h at room temperature in the dark, allowing the viable cells to reduce the MTT to formazan crystals. The supernatants were removed, and the purple formazan crystals were dissolved in isopropanol containing 4% HCl (100 μL/well) by mixing thoroughly for 30 min in the dark, before the quantification of the absorbance at 594 nm using a Dynatech MicroElisa reader (Chantilly, VA, USA). The percentage of the proliferation rate (% proliferation rate) treated with a GnRH analog was determined based on the following equation: % proliferation rate = (absorbance of cells treated with a GnRH analog/absorbance of untreated cells) × 100. The % viability of the untreated cells (control) was defined as 100%. The % viabilities were analyzed by nonlinear regression analysis, using Prism 8.0 (GraphPad Software, Prism 8.0, San Diego, CA, USA).

Assay [2] has as its target T1, human GnRH-R (Homo sapiens, UniProt P30968).
T1 construct: host or cells: HEK293 (ATCC CRL-1573)
T1 sequence (P30968 1-328): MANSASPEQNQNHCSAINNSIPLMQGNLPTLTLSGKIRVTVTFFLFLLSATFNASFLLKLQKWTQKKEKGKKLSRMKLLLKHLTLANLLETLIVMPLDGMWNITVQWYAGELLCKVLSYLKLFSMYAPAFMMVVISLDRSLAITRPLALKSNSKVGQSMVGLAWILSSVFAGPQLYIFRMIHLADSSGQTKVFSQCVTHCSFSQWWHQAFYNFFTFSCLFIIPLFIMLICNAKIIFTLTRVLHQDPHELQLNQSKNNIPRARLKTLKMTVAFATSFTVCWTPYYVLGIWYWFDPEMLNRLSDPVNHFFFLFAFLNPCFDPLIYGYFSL
Description: Calcium-based (fura-2) kinetic assay of GnRH-R agonism. The format is cell-based. The conditions noted are these: HEK293 cells transfected with human GnRH-R; fura-2.
Description: For this purpose, fura-2-based kinetic assays to monitor the [Ca^2+] were performed in real-time using suspensions of HEK293 cells transiently transfected with the human GnRH-R (Figure 2A–I).
HEK293 cells transfected with the human GnRH-R served as a platform with which to test for agonist actions of individual test compounds. These cells were loaded with the ratiometric Ca^2+ indicator fura-2 so that the change in intracellular [Ca^2+] in response to agonist stimulation could be monitored in real time in a 96-well format. For these assays, the individual test compounds were administered at the 100 s time point.
Two days post-transfection, the HEK293 cells were harvested via trypsinization to obtain single-cell suspensions that were plated at 80% density on rat tail collagen-coated 96-well Costar 3904 plates for loading with the ratiometric Ca^2+ indicator fura-2. Measurements of the intracellular [Ca^2+] were performed using a Flexstation 3 microplate reader (Molecular Devices, Sunnyvale, CA, USA). Briefly, test solutions containing GnRH-R agonists were administered to individual wells of a 96-well plate using the automated pipetting feature of the Flexstation under computer control. […] Emitted light was detected at 505/15 nm, and the ratio of emission light intensity due to excitation at 335/9 and 375/9 nm was calculated. […]

Where two headings read alike, the source gives them in different places.

For `CCNC(=O)[C@@H]1CCCN1C(=O)[C@H](CCCNC(=N)N)NC(=O)[C@H](CC(C)C)NC(=O)[C@@H](CSSCCC(=O)OCCNCCNc1ccc(NCCNCCO)c2c1C(=O)c1c(O)ccc(O)c1C2=O)NC(=O)[C@H](Cc1ccc(O)cc1)NC(=O)[C@H](CO)NC(=O)[C@H](Cc1c[nH]c2ccccc12)NC(=O)[C@H](Cc1c[nH]cn1)NC(=O)[C@@H]1CCC(=O)N1` [Con-3], in assay [1] (1 μΜ, two days of treatment, untreated cells = 100%), the “percentage of the proliferation rate” value is reported as 64.4%.

On to `O=C1c2c(O)ccc(O)c2C(=O)c2c(NCCNCCO)ccc(NCCNCCO)c21` [mitoxantrone], for which the “GnRH-R agonist action (Ca2+ elevation), in words” value in assay [2] is reported as “without effect”. Also, the IC50 in assay [1] (SK-OV-3, 48 h, 2 days at 37 °C, read-out: IC50, proliferation of SKOV-3 cells, day 2) was 480 ± 210 nM; in assay [1] (SK-OV-3, 72 h, 3 days at 37 °C, read-out: IC50, proliferation of SKOV-3 cells, day 3) it was 420 ± 90 nM; in assay [1] (SK-OV-3, 96 h, 4 days at 37 °C, read-out: IC50, proliferation of SKOV-3 cells, day 4), 280 ± 60 nM.
